{
  "source": "patent US12702648B2",
  "about": "(priority 2023, dated 2026)",
  "format_in_all_cases": "cell-based",
  "key": {"human kidney 293T cells": {"system": "human kidney 293T cells", "test": "In vitro cytotoxicity test (MTS), 293T", "settings": "72 h incubation, AmB concentration", "experimental": "(§1) In vitro cytotoxicity test: The cytotoxicity of TDs and AmB loaded nanoparticles (NPs) were studied using murine macrophage-like RAW 264.7 cells and human kidney 293T cells via MTS assays. Briefly, cells were seeded in 96-well plates at a density of 6×10^3 (RAW 264.7) and 3×10^3 (293T) cells per well and incubated overnight (Dulbecco's modified Eagle's medium (DMEM) medium, 5% CO2, 37° C.). TDs or AmB nanoformulations with different concentrations were added into each well to treat the cells. After 72 h incubation, CellTiter 96 AQueous MTS reagent was added to each well according to the manufacturer's instructions. The cell viability was determined by measuring the absorbance at 490 nm using a microplate reader (BioTek Synergy H1) with the untreated cells as negative controls. Results were obtained as the average cell viability of triplicate experiments calculated by a formula of [(ODtreat−ODblank)/(ODcontrol−ODblank)×100%]. Statistical analysis: Statistical analysis was carried out using GraphPad Prism (GraphPad Software, California, USA). One-way analyses of variance (ANOVA) was used for two-group and multiple-group analyses. […] The half maximal inhibitory concentration (IC50) was calculated by nonlinear regression analysis ([Inhibitor] vs. response—Variable slope (four parameters)). The half-life was determined by nonlinear regression analysis (one-phase association)."}, "[1]": {"system": "murine macrophage-like RAW 264.7 cells", "test": "In vitro cytotoxicity test (MTS), RAW 264.7", "settings": "72 h incubation, AmB concentration", "experimental": "as §1"}, "C. albicans (ATCC 10231)": {"system": "C. albicans (ATCC 10231)", "test": "In vitro antifungal activity (MIC, dilution method)", "settings": "5×10^6 cells/mL, 24 h at 25° C.", "experimental": "In vitro antifungal activity: In order to study the influence of encapsulation of AmB in TDs on the antifungal activity of the drug, the minimal inhibitory concentration (MIC), defined as the lowest concentration inhibiting clearly visible growth of the fungi, was determined by dilution method. The antifungal agents were tested at AmB final concentration range of 0.0125-5 μg/mL. The testing was performed in 96-well plates. Cell suspensions of C. albicans were prepared in Sabouraud's broth and adjusted to a final concentration of 5×10^6 cells/mL (fungal count determined by microscopic counts on a hemocytometer). The 96-well plate was incubated for 24 h at 25° C. and record the lowest concentration of AmB that prevented visible growth of C. albicans."}},
  "data": [
    {"molecule": "C[C@@H]1[C@H](O)[C@@H](C)/C=C/C=C/C=C/C=C/C=C/C=C/C=C/[C@H](O[C@@H]2O[C@H](C)[C@@H](O)[C@H](N)[C@@H]2O)C[C@@H]2O[C@](O)(C[C@@H](O)C[C@@H](O)[C@H](O)CC[C@@H](O)C[C@@H](O)CC(=O)O[C@H]1C)C[C@H](O)[C@H]2C(=O)O", "note": "[free AmB, Amphotericin B]", "values": [
      {"measurement": "IC50 (cytotoxicity) to 293T", "setting": "human kidney 293T cells", "value": 4.3, "unit": "µg/mL"},
      {"measurement": "IC50 (cytotoxicity) to RAW 264.7", "setting": "[1]", "value": 1.8, "unit": "µg/mL"},
      {"measurement": "MIC (minimum inhibitory concentration)", "setting": "C. albicans (ATCC 10231)", "value": 0.05, "unit": "µg/mL"}
    ]}
  ]
}
